Literature values as cited in US20080138388A1 (priority 2005, published 2008).
Read-outs that look alike come from different tables or passages of the source.

| SMILES | logP (octanol-water partition coefficient, free state) (free state) | logP (octanol-water partition coefficient, free state) |
| --- | --- | --- |
| Nc1c(Br)cc(Br)cc1CN[C@H]1CC[C@H](O)CC1 [ambroxol] | 3.00 |  |
| CCOC(=O)[C@H](CCc1ccccc1)N[C@@H](C)C(=O)N1[C@H](C(=O)O)C[C@H]2CCCC[C@@H]21 [trandopril] |  | 4.00 |
| OC(CCN1CCCCC1)(c1ccccc1)c1ccccc1 [pridinol] | 3.79 |  |
| CCCN1C[C@H](CSC)C[C@@H]2c3cccc4[nH]cc(c34)C[C@H]21 [pergolide] | 4.07 |  |
| CCOc1ccccc1OCCN[C@H](C)Cc1ccc(OC)c(S(N)(=O)=O)c1 [tamsulosin] | 3.22 |  |
